Reference: patent publication US20080125432A1 (Devgen NV, priority 2004, published 2008)
Like-named read-outs stand apart in the source and are kept apart here.

Assays:
[1] = test system: human Kv4.3/KChIP2.2 potassium channel; assay: Whole cell patch clamp, CHO-K1 cells stably expressing human Kv4.3/KChIP2.2; type: cell-based; conditions: selectivity for Kv4.3 vs hERG (Patch Clamp test); >5 considered very selective
[2] = test system: C. elegans wild-type strain N2; assay: Same C. elegans pumping assay format using wild-type strain N2; type: in vivo; conditions: read-out: EC50 (μM) Wild type worm N2
Source text: The screening of the compounds according to the present invention has been performed in the C. elegans based high-throughput screen for Kv4.3 modulators described above. The method for testing the activity on human Kv4.3 of the compounds according to the invention with C. elegans strains expressing human Kv4.3 for their activity is the same as the method described in WO 03/097682. The method for testing the compounds on wild-type C. elegans strains not expressing human Kv4.3 is the same as the method described in WO 00/63427. Briefly, UG1755 animals have been grown in large numbers and staged young adults (no or only few eggs inside the uterus) have been harvested on the day of screening. Approximately 125 animals in 80 μl buffer have been dispensed per well of a “U shaped 96-well compound plate The compound plate contained already compound material at a final concentration of 30 μM in 0.3% DMSO. After one hour incubation 10 μl of the fluorescent label Calcein AM (CAM) have been added to achieve a final concentration of 5 μM CAM and 0.8% DMSO. After another four hours of incubation at 20° C., the drinking of C. elegans animals (or the “reaction 8 measured by the uptake of CAM) has been stopped by adding 10 μl of a 60 μM ivermectin solution. The fluorescence intensity (counts per second) has been measured 40 minutes after adding ivermectin with the Wallac plate reader at a wavelength of 535 nm (after excitation at 485 nm).
These compounds have been also tested in the same assay format using a C. elegans wild-type strain N2 and the corresponding EC50 has been calculated. The ratio of the EC50s obtained for a compound on the two strains (transgenic expressing human Kv4.3 and wild-type) gives an indication on whether said compound is acting on human Kv4.3. […]

Compound | melting point | Ratio hERG/Kv4.3 [1] | also measured
COc1ccc(CNC(=O)c2sc(Nc3ccc(Br)cc3)nc2C)cc1 [Compound 60, 2-(4-bromo-phenylamino)-4-methyl-thiazole-5-carboxylic acid 4-methoxy-benzylamide] | – | 7.7 | –
COc1ccccc1Nc1nc(C)c(C(=O)N[C@H]2CCC[C@@H]2OCc2ccccc2)s1 [Compound 68, 2-(2-methoxy-phenylamino)-4-methyl-thiazole-5-carboxylic acid (1S,2S)-2-(benzyloxycyclopent-1-yl) amide] | – | 14.7 | –
2-(4-bromo-phenylamino)-4-methyl-thiazole-5-carboxylic acid 1,2,3,4-tetrahydroisoquinolinamide [Compound 66] | – | 29.1 | –
Cc1nc(Nc2ccc(Cl)cc2)sc1C(=O)N[C@H](C)c1ccc2ccccc2c1 [Compound 52, 2-(4-chloro-phenylamino)-4-methyl-thiazole-5-carboxylic acid (R)-1-(2-naphtalen-2-yl-ethyl)-amide] | – | 65.4 | –
COc1ccc(OC)c(Nc2nc(C)c(C(=O)N[C@@H]3CCC[C@H]3OCc3ccccc3)s2)c1 [Compound 33, 2-(2,5-dimethoxyphenylamino)-4-methylthiazole-5-carboxylic acid (1R,2R)-2-(benzyloxycyclopent-1-yl) amide] | – | 10.0 | –
Cc1nc(Nc2ccc(Br)cc2)sc1C(=O)NCc1cccc2ccccc12 [Compound 56, 2-(4-bromo-phenylamino)-4-methyl-thiazole-5-carboxylic acid (naphtalen-1-yl-methyl)-amide] | – | 6.6 | –
COc1ccccc1Nc1nc(C)c(C(=O)N[C@@H]2CCC[C@H]2OCc2ccccc2)s1 [Compound 31, 2-(2-methoxy-phenylamino)-4-methyl-thiazole-5-carboxylic acid (1R,2R)-2-(benzyloxycyclopent-1-yl) amide] | – | 8.7 | –
COc1ccccc1Nc1nccc(C(=O)N[C@H]2CCC[C@@H]2OCc2ccccc2)n1 [Compound 76, 2-(2-methoxy-phenylamino)-pyrimidine-4-carboxylic acid ((1S,2S)-2-benzyloxycyclopent-1-yl) amide] | 97.3 to 99.8 °C | – | –
COc1cccc([C@@H](C)NC(=O)c2sc(Nc3cc(Cl)ccc3OC)nc2C)c1 [Compound 34] | – | 5.4 | –
Cc1nc(Nc2ccc(Br)cc2)sc1C(=O)NCc1ccc(F)c(C(F)(F)F)c1 [Compound 63, 2-(4-bromo-phenylamino)-4-methyl-thiazole-5-carboxylic acid 4-fluoro-3-trifluoromethyl-benzylamide] | – | 33.1 | –
Cc1nc(Nc2ccc(Br)cc2)sc1C(=O)NCc1ccc(N(C)C)cc1 [Compound 64, 2-(4-bromo-phenylamino)-4-methyl-thiazole-5-carboxylic acid 4-dimethylamino-benzylamide] | – | >120 | –
Cc1nc(Sc2ccccc2)sc1C(=O)N[C@H]1CCC[C@@H]1OCc1ccccc1 [Compound 81, 4-methyl-2-phenylsulfanyl-thiazole-5-carboxylic acid ((1S,2S)-2-benzyloxycyclopent-1-yl) amide] | 129.5 to 132.4 °C | – | –
COc1cc(CNC(=O)c2sc(Nc3ccc(Br)cc3)nc2C)cc(OC)c1 [Compound 65, 2-(4-bromo-phenylamino)-4-methyl-thiazole-5-carboxylic acid 3,5-dimethoxy-benzylamide] | – | 9.1 | –
Cc1nc(Nc2ccc(Cl)cc2)sc1C(=O)N[C@@H]1CCC[C@H]1OCc1ccccc1 [Compound 30, 2-(4-chloro-phenylamino)-4-methyl-thiazole-5-carboxylic acid (1R,2R)-2-(benzyloxycyclopent-1-yl) amide] | – | 8.7 | EC50 [2]: > 60 µM
Cc1nc(Nc2ccc(Br)cc2)sc1C(=O)N[C@H](C)c1ccc2ccccc2c1 [Compound 19, 2-(4-bromo-phenylamino)-4-methyl-thiazole-5-carboxylic acid (R)-1-(naphthalen-2-yl)ethyl amide] | – | 33.1 | EC50 ([2]; Caenorhabditis elegans): 33 µM
Cc1nc(Nc2ccc(Br)cc2)sc1C(=O)N[C@@H](C)c1ccc2ccccc2c1 [Compound 18, 2-(4-bromo-phenylamino)-4-methyl-thiazole-5-carboxylic acid (S)-1-(naphthalen-2-yl)ethyl amide] | – | 6.9 | EC50 ([2]; Caenorhabditis elegans): 33 µM
Cc1nc(Nc2ccc(F)cc2)sc1C(=O)N[C@H](C)c1ccc2ccccc2c1 [Compound 16, 2-(4-fluoro-phenylamino)-4-methyl-thiazole-5-carboxylic acid (R)-1-(naphthalen-2-yl)ethyl amide] | – | – | EC50 ([2]; Caenorhabditis elegans): > 60 µM
COc1ccccc1Nc1ccc(C(=O)N[C@H]2CCC[C@@H]2OCc2ccccc2)s1 [Compound 75, 2-(2-methoxy-phenylamino)-thiophene-5-carboxylic acid ((1S,2S)-2-benzyloxycyclopent-1-yl) amide] | 69.7 to 71.6 °C | – | –
Cc1nc(Nc2ccc(Cl)cc2)sc1C(=O)N[C@@H](C)c1ccc2ccccc2c1 [Compound 54, 2-(4-chloro-phenylamino)-4-methyl-thiazole-5-carboxylic acid (S)-1-(2-naphtalen-2-yl-ethyl)-amide] | – | 6.6 | –
COc1ccccc1Nc1nc(C)c(C(=O)N[C@@H](C)c2ccc3ccccc3c2)s1 [Compound 55, 2-(2-methoxy-phenylamino)-4-methyl-thiazole-5-carboxylic acid (S)-1-(2-naphtalen-2-yl-ethyl)-amide] | – | 5.0 | –

More lines, main results first:

melting point | Compound | Ratio hERG/Kv4.3 [1] | also measured
66.5 °C | COc1ccccc1Nc1nc(C)c(C(=O)NCc2ccccc2SC)s1 [Compound 97] | – | –
88.7 to 90 °C | Cc1nc(NC(=O)c2ccc(C(C)(C)C)cc2)sc1C(=O)N[C@H]1CCC[C@@H]1OCc1ccccc1 [Compound 180, 2-(4-tert-butyl-benzoylamino)-4-methyl-thiazole-5-carboxylic acid ((1S,2S)-2-benzyloxycyclopent-1-yl) amide] | – | –
136.5 to 140.1 °C | COc1ccccc1Nc1nc(C)c(C(=O)NCc2ccc3c(c2)CCO3)s1 [Compound 104, 2-(2-methoxy-phenylamino)-4-methyl-thiazole-5-carboxylic acid (2,3-dihydro-benzofuran-5-ylmethyl)-amide] | – | –
105.4 to 107.6 °C | COc1ccccc1Nc1nc(C)c(C(=O)NCc2c(C)cccc2Cl)s1 [Compound 98, 2-(2-methoxy-phenylamino)-4-methyl-thiazole-5-carboxylic acid 2-chloro-6-methyl-benzylamide] | – | –
168.5 to 169.4 °C | COc1ccccc1Nc1nc(C)c(C(=O)NCc2ccc(C(C)(C)C)cc2)s1 [Compound 106, 2-(2-methoxy-phenylamino)-4-methyl-thiazole-5-carboxylic acid 4-tert-butyl-benzylamide] | – | –
150.7 to 154.2 °C | COc1ccccc1Nc1nc(C)c(C(=O)NCc2ccc(Br)cc2)s1 [Compound 108, 2-(2-methoxy-phenylamino)-4-methyl-thiazole-5-carboxylic acid 4-bromo-benzylamide] | – | –
164.4 to 169.3 °C | Cc1nc(Nc2ccc3occc3c2)sc1C(=O)N[C@H]1CCC[C@@H]1OCc1ccccc1 [Compound 126, 2-(benzofuran-5-ylamino)-4-methyl-thiazole-5-carboxylic acid ((1S,2S)-2-benzyloxycyclopent-1-yl) amide] | – | –
183.3 to 185.2 °C | COc1ccccc1Nc1nc(C)c(C(=O)NCc2ccc(N(C)C)cc2)s1 [Compound 105, 2-(2-methoxy-phenylamino)-4-methyl-thiazole-5-carboxylic acid 4-dimethylamino-benzylamide] | – | –
178 to 180.1 °C | Cc1nc(Nc2ccc3c(c2)OCCO3)sc1C(=O)N[C@H]1CCC[C@@H]1OCc1ccccc1 [Compound 95] | – | –
102.4 to 108.2 °C | Cc1nc(Nc2cccc3ccccc23)sc1C(=O)N[C@H]1CCC[C@@H]1OCc1ccccc1 [Compound 93] | – | –
